Reference: PMC6423280, “New Therapeutic Approach for Targeting Hippo Signalling Pathway” (Scientific Reports, 2019)
Peptide text beside a SMILES is read from it.

What was measured:
[1] = Peptide integrity in human serum (resistance to proteases degradation); format: in vitro ADME; settings: human serum 250 μl, 37 °C, different times, upon 6 h; MALDI-TOF MS; triplicate
Method: Figure 7 Stability of the new generated peptides in human serum. Peptides were incubated at 37 °C in human serum for different periods of time and their integrity (percentage of intact peptide) was analyzed by mass spectrometry (MS). Every measurement was performed in triplicate. Standard deviation is shown.
Peptides were incubated at 37 °C in 250 μl of human serum for several times. Samples were collected and peptide degradation stopped by freezing. Peptides were extracted from samples using the Proteo Miner Protein Enrichment System (Bio-Rad, California, USA). Percentage of intact peptide was estimated by mass spectrometry (MS) using MALDI-TOFF (Brucker Autoflex II, Massachusetts, USA) following their protocols. Measurements were performed in triplicates. MS data were analyzed using appropriated software (Clinprot tools, FLEx analysis, Brucker, Massachusetts, USA) as previously described[8],[9].

[2] = design: species or system C3H/S-strain mice; settings: mouse, in vivo
Method: Figure 8 NLS18-TEAD has anti-tumoral effect on breast cancer xenograft models. (a) C3H/S-strain mice subcutaneously inoculated with 4 × 10^5 TN60-UNLP cells were intraperitoneally treated with 5 mg/kg of NLS18-TEAD or NLS23-TEAD 5 days per week for 4 weeks. Control mice received NaCl. Tumor growth was monitored each other day. The average tumor volume of each group (8 mice per group) is shown (p < 0.018). (b) The weight of the animals and the organs upon 30 days of treatment with the peptides NLS18-TEAD or NLS23-TEAD is shown. Control non-treated mice are also shown. p and t statistic values are shown. […]

Compound | Stability to proteases degradation in human serum (percentage of intact peptide) [1] | Clinical symptoms in the injected animals compared to control non-treated animals [2]
CC(C)C[C@H](NC(=O)[C@H](CCCCN)NC(=O)[C@H](CCCCN)NC(=O)[C@H](CCCCN)NC(=O)[C@H](CCCCN)NC(=O)[C@@H]1CCCN1C(=O)[C@H](Cc1c[nH]c2ccccc12)NC(=O)[C@H](CCCCN)NC(=O)[C@H](CCCCN)NC(=O)[C@H](Cc1c[nH]c2ccccc12)NC(=O)[C@H](CCCCN)NC(=O)[C@H](CCCCN)NC(=O)[C@H](CCCCN)NC(=O)[C@H](CCCCN)NC(=O)[C@H](CCCCN)NC(=O)[C@H](CCCNC(=N)N)NC(=O)[C@H](CCCCN)NC(=O)[C@@H](N)CCCNC(=N)N)C(=O)N[C@@H](CC(=O)O)C(=O)N[C@@H](CCCNC(=N)N)C(=O)N[C@@H](CC(C)C)C(=O)N[C@@H](CCC(N)=O)C(=O)N[C@@H](CC(C)C)C(=O)N[C@H](C(=O)N[C@@H](CCC(=O)O)C(=O)N[C@@H](Cc1ccccc1)C(=O)N[C@@H](CO)C(=O)N[C@@H](C)C(=O)N[C@@H](Cc1ccccc1)C(=O)N[C@H](C(=O)N[C@@H](CCC(=O)O)C(=O)N1CCC[C@H]1C(=O)N1CCC[C@H]1C(=O)N[C@@H](CC(=O)O)C(=O)N[C@@H](C)C(=O)N[C@H](C(=O)N[C@@H](CC(=O)O)C(=O)O)C(C)C)C(C)C)C(C)C [NLS18-TEAD] (H-RKRKKKKKWKKWPKKKKLDRLQLVEFSAFVEPPDAVD-OH) | constant stability | did not detected clinical symptoms
CC(C)C[C@H](NC(=O)[C@H](CCCCN)NC(=O)[C@H](CCCCN)NC(=O)[C@H](CCCCN)NC(=O)[C@H](CCCCN)NC(=O)[C@@H]1CCCN1C(=O)[C@H](CCCCN)NC(=O)[C@H](CCCCN)NC(=O)[C@H](CCCCN)NC(=O)[C@H](Cc1c[nH]c2ccccc12)NC(=O)[C@H](CCCCN)NC(=O)[C@H](CCCCN)NC(=O)[C@H](Cc1c[nH]c2ccccc12)NC(=O)[C@H](CCCCN)NC(=O)[C@H](CCCCN)NC(=O)[C@H](CCCCN)NC(=O)[C@H](CCCCN)NC(=O)[C@H](CCCCN)NC(=O)[C@H](CCCNC(=N)N)NC(=O)[C@H](CCCCN)NC(=O)[C@@H](N)CCCNC(=N)N)C(=O)N[C@@H](CC(=O)O)C(=O)N[C@@H](CCCNC(=N)N)C(=O)N[C@@H](CC(C)C)C(=O)N[C@@H](CCC(N)=O)C(=O)N[C@@H](CC(C)C)C(=O)N[C@H](C(=O)N[C@@H](CCC(=O)O)C(=O)N[C@@H](Cc1ccccc1)C(=O)N[C@@H](CO)C(=O)N[C@@H](C)C(=O)N[C@@H](Cc1ccccc1)C(=O)N[C@H](C(=O)N[C@@H](CCC(=O)O)C(=O)N1CCC[C@H]1C(=O)N1CCC[C@H]1C(=O)N[C@@H](CC(=O)O)C(=O)N[C@@H](C)C(=O)N[C@H](C(=O)N[C@@H](CC(=O)O)C(=O)O)C(C)C)C(C)C)C(C)C [NLS23-TEAD] (H-RKRKKKKKWKKWKKKPKKKKLDRLQLVEFSAFVEPPDAVD-OH) | – | did not detected clinical symptoms
